Assay results: patent US20170135948A1, “COMPOSITION COMPRISING EXTRACT OF AUTUMN SOYBEAN LEAVES” (AMOREPACIFIC CORPORATION, priority 2014, published 2017)
Each block holds one compound with its values, some of them ahead of it.

Assays:
collagenase = test: Collagenase production inhibition test in human fibroblasts; format: cell-based; conditions: 10^−4 M tocopherol or EGCG, 24 hours, untreated group = 100
Method: The activity of inhibiting collagenase production of the soybean leaf extracts of stages VC, V2, V4, R2, R4, R6 and R7 prepared in Example 1 was compared with those of tocopherol (Comparative Example 1) and EGCG (Comparative Example 2). Tocopherol and EGCG are known to prevent skin aging by regenerating epidermal cells.
Human fibroblasts (Cascade Biologics, Portland, Oreg., USA) were added to a 96-well microtiter plate containing Dulbecco's modified Eagle's medium (DMEM) supplemented with 2.5 wt % fetal bovine serum, at 5,000 cells/well, and cultured to about 90% confluence. Then, after culturing in serum-free DMEM for 24 hours and treating with 100 μg/mL of each of the soybean leaf extracts of stages VC, V2, V4, R2, R4, R6 and R7 prepared in Example 1 or 10^−4 M tocopherol or EGCG (Sigma Aldrich) for 24 hours, the cell culture was harvested.
The production of collagenase in the cell culture harvested was measured using a collagenase measuring system (Amersham Pharmacia, USA). […]
A absorbance of a cell culture obtained without treating with the composition was used as a control group. That is to say, the expression level of collagenase in the group treated with the test substance was calculated relative to that of the untreated group as 100.
Collagenase expression level (%)=Absorbance of group treated with test substance/Absorbance of control group×100 [Equation 1]

[1] = Irritation test (pricking, flushing) on the face of 15 panels sensitive to irritation; format: in vivo
Method: Retinol as a known antiaging substance and the autumn soybean leaf (stage R7) extract as an active ingredient of the present disclosure were tested comparatively for irritation by 15 panels who are sensitive to irritation such as pricking, flushing, etc.
The panels were asked to apply 0.5 mL of retinol (purchased from Sigma) or the autumn soybean leaf extract obtained in Example 1 (1 mg/mL) randomly on each face and score between 0 and 3.0 points with 0.1-point intervals.
1.1-2.0: Moderate irritation.
2.1-3.0: Severe irritation.

[2] = Antioxidative activity test based on DPPH reduction; format: biochemical; conditions: sample concentration at which absorbance at 540 nm decreased by 50%; 100 μM DPPH, 37° C., 30 minutes
Method: In order to investigate the antioxidative activity of the soybean leaf extracts of stages VC, V2, V4, R2, R4, R6 and R7 prepared in Example 1, the effect of inhibiting the oxidation of the free radical 1,1-diphenyl-2-picrylhydrazyl (DPPH) was compared by measuring the change in absorbance caused by reduction of DPPH.
190 μL of a 100 μM (in ethanol) DPPH solution and each of the soybean leaf extracts of stages VC, V2, V4, R2, R4, R6 and R7 obtained in Example 1 and 10,000 ppm Trolox (positive control), a synthetic antioxidant are prepared at a concentration of 10,000 ppm, diluted to a final concentration of 500 ppm, 250 ppm, 125 ppm, 62.5 ppm, 31.25 ppm or 15.63 ppm. 10 μL of each of them were mixed to prepare a reaction solution, and absorbance was measured at 540 nm after incubation at 37° C. for 30 minutes. IC50 means the sample concentration when the absorbance was decreased by 50% due to the added sample.

[3] = score 0 to 3.0 points, 0.5 mL applied on face, extract 1 mg/mL, 15 panels

SMILES: O=C(O[C@@H]1Cc2c(O)cc(O)cc2O[C@@H]1c1cc(O)c(O)c(O)c1)c1cc(O)c(O)c(O)c1 [EGCG (Comparative Example 2), EGCG]
- Collagenase expression level (%) (collagenase): 61%

SMILES: CC1=C(/C=C/C(C)=C/C=C/C(C)=C/CO)C(C)(C)CCC1 [Retinol]
- Irritation such as pricking and flushing (in words) ([1]; grade by the scoring standard, 0.5 mL applied on face): slight irritation
- Mean (irritation score) ([1]; mean of pricking and flushing scores, 0 to 3.0 points): 0.65
- Flushing (irritation score) [1, 3]: 0.42
- Pricking (irritation score) [1, 3]: 0.87

SMILES: Cc1c(C)c2c(c(C)c1O)CC[C@@](C)(CCC[C@H](C)CCC[C@H](C)CCCC(C)C)O2 [Tocopherol (Comparative Example 1), tocopherol]
- Collagenase expression level (%) (collagenase): 74%

- IC50 (ppm) [2]: 38 ppm
SMILES: Cc1c(C)c2c(c(C)c1O)CCC(C)(C(=O)O)O2 (stereo not shown) [Trolox (positive control), Trolox]
